Laboratory results from patent publication US20250120394A1, “SILANE SURFACTANT FOR AGRICULTURAL USE” (MOMENTIVE PERFORMANCE MATERIALS INC., priority 2023, published 2025).
Structures can show the parent of a compound that is named as a salt.

Tests used:
Assay type in all cases: in vivo
[1] = test system: Redroot pigweed (Amaranthus retroflexus, EPPO Code: AMARE); assay: Effect of adjuvant on performance of 2,4-D Amine, lab spray trial, visual weed control; conditions: 2,4-D amine 0.25 wt % alone, no adjuvant
Description: (§1) Spray Protocol: A lab spray trial was conducted to evaluate the effect of the silane compositions in accordance with the present technology on the performance of various herbicides.
(§2) Target weeds were grown from seed, under controlled conditions in a “Caron Model 7301-50-2” Growth chamber using simulated full sunlight. Sprays were applied to the target weeds at the 4-6 leaf growth stage using a DeVries Generation 4—Research Track Sprayer with a T-Jet 8002E nozzle at an equivalent spray volume of 100 L/ha.
SIL-8 was compared to a conventional trisiloxane alkoxylate (TSA-1) as a spray adjuvant, to improve the performance of 2,4-D Amine (herbicide) on AMARE. The spray protocol is described above. The 2,4-D Amine was applied at a sub lethal dose (25% of label rate) to show the impact of the adjuvant on performance. Assessment of weed control was made by a visual observation as compared to an untreated check.

[2] = test system: red banded stink bug (Piezodorus guildinii); assay: Field trial: control of stink bug on green beans with Cefanol acephate plus adjuvant; conditions: Cefanol acephate 0.50 kg/ha alone
Description: A composition of the present invention (SIL-8) was compared to a conventional trisiloxane alkoxylate (TSA-2) for the improvement of the insecticide acephate in the control of stink-bug.
The experiment was conducted with a randomized block design, with 6 treatments (including the untreated check) and 4 repetitions. Each plot was of 12 m^2 in area. The data obtained were subjected to analysis of variance and the average of the treatments compared using the Tukey test to 5% probability test.
During the trial there were […] evaluation periods: 0, 3, 5 and 7 Days After Application (DAA), for determining the number of red banded stink bugs in each plot evaluated.
The treatments were applied using a CO2 pressurized Backpack sprayer, with 4 nozzles spaced 50 cm between each one. Nozzles type XR11002 (Flat Fan) and a spray volume 150 L·ha.

[3] = test system: Yellow Foxtail (Setaria pumila); assay: Control of Yellow Foxtail with glyphosate-isopropylamine salt, visual weed control; conditions: glyphosate-isopropylamine salt 0.75% a.i. alone, adjuvant 0
Description: as §1, §2
Glyphosate-isopropylamine salt was applied at 0.75% a.i. to Yellow foxtail at a 15 cm growth-stage. The spray mixtures were applied either as herbicide alone, or in combination with the silane compositions SIL-6, SIL-9 and SIL-12 at an equivalent spray volume of 100 L/ha. A visual assessment of weed control was made at 7 and 14 Days After Treatment (DAT). The application method is the same as previously described.

Q: `CNC.O=C(O)COc1ccc(Cl)cc1Cl` [2,4-D amine, 2,4-D Amine] was tested. Which “Weed control of AMARE, 7-DAT” value [1] did it give?
A: 46%

Q: And the “Weed control of AMARE, 14-DAT” value [1]?
A: 55%

Q: What does the source list for `COP(=O)(NC(C)=O)SC` (centres unmarked) [Acephate]?
A: Eff. %, 1 DAA [2]: 76.0%; Eff. %, 3 DAA [2]: 60.0%; Eff. %, 5 DAA [2]: 45.5%; Eff. %, 7 DAA [2]: 63.6%; Number of red banded stink bug, 1 DAA [2]: 0.5 b; Number of red banded stink bug, 3 DAA [2]: 0.7 b; Number of red banded stink bug, 5 DAA [2]: 0.5 a; Number of red banded stink bug, 7 DAA [2]: 0.3 b; Eff. %, 0 DAA ([2]; 0 DAA (initial)): 0.0%; Number of red banded stink bug, 0 DAA ([2]; 0 DAA (initial)): 1.8 a

Q: For `O=C(O)CNCP(=O)(O)O` [Glyphosate, Glyphosate-isopropylamine salt], which “Weed control of Yellow foxtail, 7 DAT” value [3] is on record?
A: 20

Q: What about the “Weed control of Yellow foxtail, 14 DAT” value [3] of the same compound?
A: 92
